Assay results: patent US9000022B2 (Exelixis Patent Company LLC, priority 2005, dated 2015)

system: LXRα and/or LXRβ; assay: Co-transfection assay (LXRE luciferase reporter, CV-1 cells); format: cell-based, human; details: tested as described in Example 33; IC50 or EC50 for LXRα and/or LXRβ, isoform not specified; read-out: activity (IC50 or EC50 for LXR)
Summary of the method: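 CV-1 cells transiently co-transfected with full-length human LXRα or LXRβ plus RXRα, an LXRE×1-Tk-luciferase reporter and a β-galactosidase control. Compounds incubated 20 h at 37 °C (≤1% DMSO; screen at 10 μM final); luciferase read after lysis. EC50/IC50 from 8-point half-log curves (4 wells per point, ≥3 experiments); efficacy relative to a reference agonist high control and DMSO.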

Structure (SMILES) | IC50 or EC50 (potency, activation or inhibition) [nM]
CCS(=O)(=O)c1cccc(-c2ccc(-n3cc(C(C)(C)O)nc3-c3ccccc3C(F)(F)F)c(F)c2)c1 [Example 110, 2-(1-(3′-(ethylsulfonyl)-3-fluoro-biphenyl-4-yl)-2-(2-(trifluoromethyl)phenyl)-1H-imidazol-4-yl)propan-2-ol] | < 1000
CCC(O)(CC)c1cn(-c2ccc(-c3cccc(S(=O)(=O)CC)c3)cc2)c(-c2cccc(Cl)c2Cl)n1 [Example 73, 3-(2-(2,3-dichlorophenyl)-1-(3′-(ethylsulfonyl)biphenyl-4-yl)-1H-imidazol-4-yl)pentan-3-ol] | < 1000
CNS(=O)(=O)c1cccc(-c2ccc(-n3cc(C(C)(C)O)nc3-c3ccccc3C(F)(F)F)cc2)c1 [Example 344, 4′-{4-(1-hydroxy-1-methylethyl)-2-[2-(trifluoromethyl)phenyl]-1H-imidazol-1-yl}-N-methylbiphenyl-3-sulfonamide] | < 1000
CC(C)(C)c1ccc(-c2ccc(-n3cc(C(C)(C)O)nc3-c3ccccc3Cl)cc2)cc1 [Example 389, 2-{2-(2-chlorophenyl)-1-[4′-(1,1-dimethylethyl)biphenyl-4-yl]-1H-imidazol-4-yl}propan-2-ol] | 1000 to 10000
CC(C)(O)c1cn(-c2ccc(-c3ccc(CO)c(S(C)(=O)=O)c3)cc2F)c(-c2ccccc2C(F)(F)F)n1 [Example 121] | < 1000
CCc1ccccc1-c1nc(/C(C)=N/O)cn1-c1ccc(-c2cccc(S(C)(=O)=O)c2)cc1 [Example 71, (E)-1-(2-(2-ethylphenyl)-1-(3′-(methylsulfonyl)biphenyl-4-yl)-1H-imidazol-4-yl)ethanone oxime] | < 1000
CCS(=O)(=O)c1cccc(-c2ccc(-n3cc(C(C)(C)O)nc3-c3ccccc3C(F)(F)F)cc2)c1 [Example 200, 2-{1-[3′-(ethylsulfonyl)biphenyl-4-yl]-2-[2-(trifluoromethyl)phenyl]-1H-imidazol-4-yl}propan-2-ol] | < 1000
CC(C)(O)c1cn(-c2ccc(-c3cccc(S(C)(=O)=O)c3)cc2)c(-c2ccc(F)cc2)n1 [Example 385, 2-{2-(4-fluorophenyl)-1-[3′-(methylsulfonyl)biphenyl-4-yl]-1H-imidazol-4-yl}propan-2-ol] | 1000 to 10000
CC(C)(O)c1cn(-c2ccc(-c3ccc(CO)c(S(C)(=O)=O)c3)cc2Cl)c(-c2c(Cl)cccc2Cl)n1 [Example 149, 2-(1-(3-chloro-4′-(hydroxymethyl)-3′-(methylsulfonyl)biphenyl-4-yl)-2-(2,6-dichlorophenyl)-1H-imidazol-4-yl)propan-2-ol] | < 1000
COc1ncccc1-c1ccc(-n2cc(C(C)(C)O)nc2-c2ccccc2C(F)(F)F)cc1 [Example 274, 2-(1-{4-[2-(methyloxy)pyridin-3-yl]phenyl}-2-[2-(trifluoro-methyl)phenyl]-1H-imidazol-4-yl)propan-2-ol] | 1000 to 10000
CC(C)(O)c1cn(-c2ccc(-c3ccc(CO)c(S(C)(=O)=O)c3)cc2Cl)c(-c2ccccc2C(F)(F)F)n1 [Example 139, 2-(1-(3-chloro-4′-(hydroxymethyl)-3′-(methylsulfonyl)biphenyl-4-yl)-2-(2-(trifluoromethyl)phenyl)-1H-imidazol-4-yl)propan-2-ol] | < 1000
CC(C)(O)c1cn(-c2ccc(-c3cccc(S(C)(=O)=O)c3)c(F)c2)c(-c2ccccc2C(F)(F)F)n1 [Example 111, 2-(1-(2-fluoro-3′-(methyl-sulfonyl)biphenyl-4-yl)-2-(2-(trifluoromethyl)phenyl)-1H-imidazol-4-yl)propan-2-ol] | < 1000
Cc1cc(-c2ccc(CO)c(S(C)(=O)=O)c2)ccc1-n1cc(C(C)(C)O)nc1-c1cccc(Cl)c1Cl [Example 176, 2-(2-(2,3-dichlorophenyl)-1-(4′-(hydroxymethyl)-3-methyl-3′-(methylsulfonyl)biphenyl-4-yl)-1H-imidazol-4-yl)propan-2-ol] | < 1000
